Laboratory results as given in publication PMC4450297, “Screening Active Compounds from Garcinia Species Native to China Reveals Novel Compounds Targeting the STAT/JAK Signaling Pathway” (BioMed Research International, 2015).

Key:
Experiment in all cases: Cell panel screen (CellTiter-Glo)
Format in all cases: cell-based, human
ChaGo-K-1 = ChaGo-K-1 (Lung), 20 micromolar, 72 hrs
Method: (§1) All cells were obtained from the cell bank of the American Type Culture Collection (ATCC) and cultured in the supplier's recommended media supplemented with 10% FBS. The cell panel screen was measured using the CellTiter-Glo assay (Promega, Madison, WI) following a standard protocol. Briefly, cancer cells were seeded in 96-well plates and cultured overnight at 37°C with or without 5% CO2 in an incubator. Each compound was dissolved with limited DMSO and diluted to a certain concentration with culture medium and then added to the corresponding well of the cell plate. The final concentration of compound was 20 μM. The control cells (without treatment) received the same amount of DMSO and were incubated under the same conditions. After 72 h cultivation, 100 μL of the CellTiter-Glo reagent was added directly to each well for 10-minute incubation. The plate was then read on a FlexStation 3 microplate luminometer (Molecular Devices, USA) to monitor the luminescence signal generated by the luciferase-catalyzed reaction of luciferin and ATP. The percent of growth inhibition was calculated using the following formula: (untreated cells − treated cells)/(untreated cells − background without cells) ∗ 100.

HT-1197 = HT-1197 (Urinary bladder), 20 micromolar, 72 hrs
Method: as §1

TCCSUP = TCCSUP (Urinary bladder), 20 micromolar, 72 hrs
Method: as §1

HCC1599 = HCC1599 (Breast), 20 micromolar, 72 hrs
Method: as §1

ZR-75-30 = ZR-75-30 (Breast), 20 micromolar, 72 hrs
Method: as §1

BT-549 = BT-549 (Breast), 20 micromolar, 72 hrs
Method: as §1

A704 = A704 (Kidney), 20 micromolar, 72 hrs
Method: as §1

HCC1395 = HCC1395 (Breast), 20 micromolar, 72 hrs
Method: as §1

NCI-H1623 = NCI-H1623 (Lung), 20 micromolar, 72 hrs
Method: as §1

SW13 = SW13 (Adrenal gland), 20 micromolar, 72 hrs
Method: as §1

HGC-27 = HGC-27 (Stomach), 20 micromolar, 72 hrs
Method: as §1

C8166 = C8166 (Leukemia), 20 micromolar, 72 hrs
Method: as §1

HCC1569 = HCC1569 (Breast), 20 micromolar, 72 hrs
Method: as §1

T47D = T47D (Breast), 20 micromolar, 72 hrs
Method: as §1

NCI-H2347 = NCI-H2347 (Lung), 20 micromolar, 72 hrs
Method: as §1

Colo 205 = conditions: Colo 205, 20 micromolar, 72 hrs
Method: as §1

Panc 03.27 = Panc 03.27 (Pancreas), 20 micromolar, 72 hrs
Method: as §1

CW-2 = CW-2 (Colon), 20 micromolar, 72 hrs
Method: as §1

NCI-H2405 = NCI-H2405 (Lung), 20 micromolar, 72 hrs
Method: as §1

MSTO-211-H = MSTO-211-H (Lung), 20 micromolar, 72 hrs
Method: as §1

HEC-1-A = HEC-1-A (Uterus), 20 micromolar, 72 hrs
Method: as §1

C3A = C3A (Liver), 20 micromolar, 72 hrs
Method: as §1

NCI-H1694 = NCI-H1694 (Lung), 20 micromolar, 72 hrs
Method: as §1

HCC1937 = HCC1937 (Breast), 20 micromolar, 72 hrs
Method: as §1

M059J = M059J (Brain), 20 micromolar, 72 hrs
Method: as §1

A498 = A498 (listed under Lung), 20 micromolar, 72 hrs
Method: as §1

NCI-H28 = NCI-H28 (Lung), 20 micromolar, 72 hrs
Method: as §1

J82 = J82 (Urinary bladder), 20 micromolar, 72 hrs
Method: as §1

Bel-7402 = Bel-7402 (Liver), 20 micromolar, 72 hrs
Method: as §1

BT-474 = BT-474 (Breast), 20 micromolar, 72 hrs
Method: as §1

T98G = T98G (Brain), 20 micromolar, 72 hrs
Method: as §1

NCI-H524 = NCI-H524 (Lung), 20 micromolar, 72 hrs
Method: as §1

RL95 = RL95 (Uterus), 20 micromolar, 72 hrs
Method: as §1

HPAF-II = HPAF-II (Pancreas), 20 micromolar, 72 hrs
Method: as §1

NCI-H1770 = NCI-H1770 (Lung), 20 micromolar, 72 hrs
Method: as §1

CCF-STTG1 = CCF-STTG1 (Brain), 20 micromolar, 72 hrs
Method: as §1

| SMILES | Percent Inhibition (ChaGo-K-1) | Percent Inhibition (HT-1197) | Percent Inhibition (TCCSUP) | Percent Inhibition (HCC1599) | Percent Inhibition (ZR-75-30) | Percent Inhibition (BT-549) | Percent Inhibition (A704) | Percent Inhibition (HCC1395) | Percent Inhibition (NCI-H1623) | Percent Inhibition (SW13) | Percent Inhibition (HGC-27) | Percent Inhibition (C8166) | Percent Inhibition (HCC1569) | Percent Inhibition (T47D) | Percent Inhibition (NCI-H2347) | Percent Inhibition (Colo 205) | Percent Inhibition (Panc 03.27) | Percent Inhibition (CW-2) | Percent Inhibition (NCI-H2405) | Percent Inhibition (MSTO-211-H) | also measured |
| --- | --- | --- | --- | --- | --- | --- | --- | --- | --- | --- | --- | --- | --- | --- | --- | --- | --- | --- | --- | --- | --- |
| CC(C)=CCc1c2c(c3oc4c(O)c(O)ccc4c(=O)c3c1O)C=CC(C)(C)O2 [Compound C-6] | 7% | 20% | 11% | 52% | 64% | -6% | -8% | 14% | -13% | 1% | 18% | 12% | 7% | 6% | 7% | 3% | 21% | 5% | -5% | 1% | Percent Inhibition (HEC-1-A): 1%; Percent Inhibition (C3A): 17%; Percent Inhibition (NCI-H1694): 19%; Percent Inhibition (HCC1937): 21%; Percent Inhibition (M059J): -21%; Percent Inhibition (A498): 10%; Percent Inhibition (NCI-H28): 12%; Percent Inhibition (J82): 13%; Percent Inhibition (Bel-7402): 5%; Percent Inhibition (BT-474): -18%; Percent Inhibition (T98G): 11%; Percent Inhibition (NCI-H524): -61%; Percent Inhibition (RL95): 9%; Percent Inhibition (HPAF-II): -10%; Percent Inhibition (NCI-H1770): 5%; Percent Inhibition (CCF-STTG1): 16% |
| COC(=O)C1OC(Oc2cc(O)c3c(=O)cc(-c4ccc(O)cc4)oc3c2)C(O)C(O)C1O (stereo not drawn) [WZ-6] | -16% | 16% | 8% | 12% | -2% | -16% | -9% | 21% | -8% | 1% | -8% | -15% | -18% | 4% | -3% | 4% | -4% | 12% | -12% | 6% | Percent Inhibition (HEC-1-A): 1%; Percent Inhibition (C3A): -1%; Percent Inhibition (NCI-H1694): -9%; Percent Inhibition (HCC1937): 3%; Percent Inhibition (M059J): 2%; Percent Inhibition (A498): 13%; Percent Inhibition (NCI-H28): 6%; Percent Inhibition (J82): -5%; Percent Inhibition (Bel-7402): 1%; Percent Inhibition (BT-474): -12%; Percent Inhibition (T98G): 4%; Percent Inhibition (NCI-H524): -11%; Percent Inhibition (RL95): -5%; Percent Inhibition (HPAF-II): -14%; Percent Inhibition (NCI-H1770): -1%; Percent Inhibition (CCF-STTG1): -3% |
| O=C(c1ccc(O)c(O)c1)c1c(O)cc(O)cc1O [gl-25] | -26% | 5% | -5% | 11% | -3% | -10% | -5% | -8% | 0% | -10% | -3% | 3% | 1% | -8% | -13% | -1% | -14% | -2% | -9% | -30% | Percent Inhibition (HEC-1-A): 5%; Percent Inhibition (C3A): -3%; Percent Inhibition (NCI-H1694): -12%; Percent Inhibition (HCC1937): 0%; Percent Inhibition (M059J): -9%; Percent Inhibition (A498): -10%; Percent Inhibition (NCI-H28): -9%; Percent Inhibition (J82): 1%; Percent Inhibition (Bel-7402): -5%; Percent Inhibition (BT-474): -3%; Percent Inhibition (T98G): -2%; Percent Inhibition (NCI-H524): -74%; Percent Inhibition (RL95): -8%; Percent Inhibition (HPAF-II): 1%; Percent Inhibition (NCI-H1770): -10%; Percent Inhibition (CCF-STTG1): 9% |
| CC(C)=CCc1c(O)cc2oc3c(c(=O)c2c1O)C(CC=C(C)C)(CC=C(C)C)C(=O)C(O)=C3 [bn-2, Allanxanthone C] | 75% | 38% | 75% | 79% | 86% | 54% | 4% | 84% | 49% | 15% | 53% | 86% | 63% | 54% | 40% | 69% | 48% | 72% | 40% | 72% | Percent Inhibition (HEC-1-A): 51%; Percent Inhibition (C3A): 39%; Percent Inhibition (NCI-H1694): 99%; Percent Inhibition (HCC1937): 75%; Percent Inhibition (M059J): 51%; Percent Inhibition (A498): 34%; Percent Inhibition (NCI-H28): 52%; Percent Inhibition (J82): 43%; Percent Inhibition (Bel-7402): 64%; Percent Inhibition (BT-474): 22%; Percent Inhibition (T98G): 98%; Percent Inhibition (NCI-H524): 97%; Percent Inhibition (RL95): 70%; Percent Inhibition (HPAF-II): 28%; Percent Inhibition (NCI-H1770): 90%; Percent Inhibition (CCF-STTG1): 52% |
